What all share (test): relative cell number vs DMSO control (72 h) (% of DMSO); higher = less growth inhibition (more cells)
Common to all, as to conditions: sgRNA knockout: sgNT

The test system of one assay is SKBR3. Put shortly:
(§1)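 Doxycycline at 100 ng/mL was applied for 6 days to pooled Cas9-engineered breast cancer lines, each holding 12 sgRNA perturbations. The cells were then seeded at 5000 per 96-well and exposed in duplicate for 72 h to four 10-fold doses (10 nM–10 μM or 1 nM–1 μM). Cell numbers were read from sequenced sgRNA and cell-line barcodes using per-sample 293T spike-in standard curves. The reported relative cell number is the percent of the median of DMSO-treated samples.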

In another assay the test system is BT-20. The procedure, abridged: as §1
The subject of a further assay is HCC-38. The procedure, abridged: as §1
The test system of a further assay is MDA-MB-231. Put shortly: as §1
In a further assay the test system is ZR-75-1. Put shortly:
as §1

± gives the standard deviation of the averaged measurements.

Consider `Cc1ccc(C(=O)Cn2c3c(sc2=N)CCCC3)cc1` [PifithrinAlpha], for which the relative cell number was found to be 133 ± 10 in the assay on SKBR3 (10 nM); 84.2 ± 16 with SKBR3 (100 nM); 85.6 ± 2.5 in the assay on SKBR3 (1000 nM); 67.1 ± 6.8 in the assay on SKBR3 (10000 nM); 135 ± 2.2 in the assay on BT-20 (10 nM); 95.61 ± 0.61 in the assay on BT-20 (100 nM). Besides, the relative cell number stood at 103 ± 1.8 in the assay with BT-20 (1000 nM); 77.5 ± 1.6 in the assay with BT-20 (10000 nM); 91.7 ± 2.4 with HCC-38 (10 nM); 91.4 ± 4.6 in the assay on HCC-38 (100 nM); 83.2 ± 14 with HCC-38 (1000 nM); 90.2 ± 8.3 with HCC-38 (10000 nM). Besides, the relative cell number with MDA-MB-231 (10 nM) amounted to 114 ± 41; in the assay on MDA-MB-231 (100 nM), 85.3 ± 57; in the assay with MDA-MB-231 (1000 nM), 94.3 ± 30; in the assay with MDA-MB-231 (10000 nM), 57.2 ± 3.8; in the assay with ZR-75-1 (10 nM), 121 ± 13; with ZR-75-1 (100 nM), 90.9 ± 20. Further, the values for the relative cell number with ZR-75-1 (1000 nM) and in the assay with ZR-75-1 (10000 nM) were 61.5 ± 23 and 37.7 ± 11, respectively.
Consider `CC(C)(C)OC(=O)CN(Cc1ccc(Cl)cc1)Cc1ccc([N+](=O)[O-])s1` [GSK4112], for which the relative cell number stood at 87.6 ± 3.9 in the assay on SKBR3 (10 nM); 89 ± 20 in the assay on SKBR3 (100 nM); 66.5 ± 15 with SKBR3 (1000 nM); 117 ± 11 in the assay on SKBR3 (10000 nM); 73.6 ± 2 in the assay with BT-20 (10 nM); 111 ± 14 with BT-20 (100 nM). Also, the relative cell number with BT-20 (1000 nM) was found to be 94 ± 20; in the assay with BT-20 (10000 nM), 104 ± 3.4; in the assay with HCC-38 (10 nM) it was 78.9 ± 4.7; in the assay with HCC-38 (100 nM), 95.1 ± 11; in the assay on HCC-38 (1000 nM), 95.8 ± 10; with HCC-38 (10000 nM) it was 96.5 ± 11. Also, the relative cell number in the assay with MDA-MB-231 (10 nM) was found to be 82.6 ± 9.2; in the assay on MDA-MB-231 (100 nM), 96.4 ± 7.3; in the assay with MDA-MB-231 (1000 nM), 82.9 ± 9.5; in the assay with MDA-MB-231 (10000 nM) it was 114 ± 40; with ZR-75-1 (10 nM), 100 ± 4.8; with ZR-75-1 (100 nM) it was 148 ± 35. Also, the relative cell number in the assay with ZR-75-1 (1000 nM) was 86.4 ± 8.4; in the assay on ZR-75-1 (10000 nM), 100 ± 29.
For the molecule `O=C1c2c(O)ccc(O)c2C(=O)c2c(NCCNCCO)ccc(NCCNCCO)c21` [Mitoxantrone], the relative cell number came to 37.3 ± 21 in the assay on SKBR3 (10 nM); 22.3 ± 5.1 with SKBR3 (100 nM); 4.5 ± 0.26 in the assay on SKBR3 (1000 nM); 4.94 ± 3.2 in the assay on SKBR3 (10000 nM); 55 ± 13 in the assay on BT-20 (10 nM); 39.2 ± 9.2 in the assay with BT-20 (100 nM). For the same molecule, the relative cell number was found to be 19.5 ± 5 with BT-20 (1000 nM); 5.45 ± 2 in the assay with BT-20 (10000 nM); 33.9 ± 2.3 in the assay on HCC-38 (10 nM); 30.46 ± 0.2 in the assay with HCC-38 (100 nM); 7.76 ± 0.68 with HCC-38 (1000 nM); 7.21 ± 2.4 in the assay with HCC-38 (10000 nM). Further, the relative cell number stood at 20.8 ± 7.3 in the assay with MDA-MB-231 (10 nM); 17.3 ± 0.44 in the assay on MDA-MB-231 (100 nM); 4.896 ± 0.008 in the assay with MDA-MB-231 (1000 nM); 6.65 ± 4.1 in the assay on MDA-MB-231 (10000 nM); 37.2 ± 4 in the assay on ZR-75-1 (10 nM); 22.3 ± 12 in the assay on ZR-75-1 (100 nM). Further, the results for the relative cell number with ZR-75-1 (1000 nM) and with ZR-75-1 (10000 nM) were 13.4 ± 1.2 and 7.6 ± 0.68, respectively.
On to `COC(=O)/C=C/C(=O)OC` [DimethylFumarate], for which the relative cell number in the assay with SKBR3 (10 nM) was 112 ± 23; in the assay on SKBR3 (100 nM), 98.3 ± 3; in the assay with SKBR3 (1000 nM), 86.2 ± 8.6; in the assay on SKBR3 (10000 nM), 78.2 ± 16; in the assay with BT-20 (10 nM), 105 ± 18; in the assay on BT-20 (100 nM), 98.2 ± 2.9. Besides, the relative cell number with BT-20 (1000 nM) worked out at 86.1 ± 15; with BT-20 (10000 nM), 84.8 ± 1.5; in the assay with HCC-38 (10 nM), 104 ± 17; with HCC-38 (100 nM) it was 81.6 ± 2.4; with HCC-38 (1000 nM) it was 91.4 ± 7.1; in the assay on HCC-38 (10000 nM), 91.3 ± 20. The relative cell number stood at 107 ± 36 with MDA-MB-231 (10 nM); 88.3 ± 9.9 in the assay on MDA-MB-231 (100 nM); 91.2 ± 7.2 in the assay with MDA-MB-231 (1000 nM); 98.8 ± 16 with MDA-MB-231 (10000 nM); 95.9 ± 36 with ZR-75-1 (10 nM); 120 ± 19 with ZR-75-1 (100 nM). Besides, the relative cell number in the assay with ZR-75-1 (1000 nM) came to 97.7 ± 76; in the assay on ZR-75-1 (10000 nM), 81.2 ± 38.
With `C[C@@]1(C(=O)Nc2ccc(F)nc2)CCCN1c1nc(Nc2cc(C3CC3)n[nH]2)c2cccn2n1`, the relative cell number in the assay with SKBR3 (10 nM) was determined as 72 ± 24; in the assay on SKBR3 (100 nM), 89.9 ± 15; in the assay with SKBR3 (1000 nM), 74.8 ± 14; with SKBR3 (10000 nM), 66 ± 6.5; in the assay on BT-20 (10 nM), 77.5 ± 8.7; in the assay with BT-20 (100 nM), 89.5 ± 17. Further, the relative cell number worked out at 90 ± 11 in the assay with BT-20 (1000 nM); 67.5 ± 16 in the assay with BT-20 (10000 nM); 87.8 ± 4.9 in the assay with HCC-38 (10 nM); 82.5 ± 10 in the assay on HCC-38 (100 nM); 81.5 ± 2.7 in the assay with HCC-38 (1000 nM); 45.49 ± 0.25 in the assay with HCC-38 (10000 nM). Further, the relative cell number in the assay with MDA-MB-231 (10 nM) was 126 ± 33; in the assay with MDA-MB-231 (100 nM), 96.4 ± 18; in the assay on MDA-MB-231 (1000 nM) it was 70.4 ± 5.7; with MDA-MB-231 (10000 nM), 43.2 ± 7.3; in the assay on ZR-75-1 (10 nM), 92.7 ± 27; in the assay on ZR-75-1 (100 nM) it was 73.9 ± 16. Also, the relative cell number is 36 ± 18 with ZR-75-1 (1000 nM) and 30.8 ± 12 in the assay on ZR-75-1 (10000 nM).
`Clc1ccc(C2(c3ccc(-c4cn[nH]c4)cc3)CCNCC2)cc1` [AT7867]: the relative cell number was found to be 70.8 ± 4.4 in the assay with SKBR3 (10 nM); 102 ± 5 in the assay with SKBR3 (100 nM); 59.38 ± 0.082 with SKBR3 (1000 nM); 10.8 ± 2.8 with SKBR3 (10000 nM); 79.5 ± 20 in the assay with BT-20 (10 nM); 108 ± 32 with BT-20 (100 nM). Moreover, the relative cell number in the assay with BT-20 (1000 nM) worked out at 77.8 ± 12; with BT-20 (10000 nM) it was 24.8 ± 5.2; in the assay with HCC-38 (10 nM) it was 91.3 ± 5.8; in the assay on HCC-38 (100 nM) it was 64.1 ± 14; in the assay on HCC-38 (1000 nM), 45.4 ± 2.5; with HCC-38 (10000 nM), 50.5 ± 2.3. Also, the relative cell number came out at 59.5 ± 17 in the assay with MDA-MB-231 (10 nM); 84.9 ± 1.7 with MDA-MB-231 (100 nM); 35.9 ± 6 with MDA-MB-231 (1000 nM); 14.5 ± 2.1 with MDA-MB-231 (10000 nM); 61.2 ± 35 in the assay with ZR-75-1 (10 nM); 64.4 ± 20 in the assay with ZR-75-1 (100 nM). The relative cell number in the assay on ZR-75-1 (1000 nM) was found to be 66.2 ± 5.2; in the assay with ZR-75-1 (10000 nM), 11.1 ± 1.7.

For the origin of these results see the supplement of paper PMC7661543.
